Laboratory results taken from patent publication US20230132256A1, “COMBINATION THERAPY” (ADC THERAPEUTICS SA, priority 2018, published 2023).

System: CT26 syngeneic model (subcutaneous CT26 tumors)
Assay: In vivo efficacy study testing combination of sur301 (sADC×25) with gemcitabine in the CT26 syngeneic model
Design: species or system female BALB/c mice
Details: Gemcitabine 80 mg/kg i.p. q3d×4 (Days 1, 4, 7, 10), single agent, animals of n=10/group
Protocol: On the day of implant, cultured CT26 cells were harvested during log phase growth and resuspended in PBS at a concentration of 3×10^6 cells/mL. Tumors were initiated by subcutaneously implanting 3×10^5 CT26 cells (0.1 mL suspension) into the right flank of each test animal. Tumors were monitored as their volumes approached the target range of 80-120 mm^3. Tumor were measured in two dimensions using calipers, and volume was calculated using the formula:
Tumor Volume (mm^3)=w2×l/2
where w=width and l=length, in mm, of the tumor. Tumor weight may be estimated with the assumption that 1 mg is equivalent to 1 mm3 of tumor volume.
Fifteen days after tumor cell implantation, on Day 1 of the study, animals were sorted into groups (n=10/group) with individual tumor volumes of 75 to 144 mm^3, and group mean tumor volumes of 104-106 mm^3.
All doses were administered intraperitoneally (i.p.). The dosing volume was 0.2 mL per 20 grams of body weight (10 mL/kg), and was scaled to the body weight of each individual animal.
Gemcitabine was administered at 80 mg/kg q3d×4 which corresponded to Days 1, 4, 7 and 10.
The antibody component of ADC×25 specifically binds human CD25. […]
Tumors were measured using calipers twice per week, and each animal was euthanized when its tumor reached the endpoint volume of 2000 mm^3 or at the end of the study (Day 56), whichever came first.
Response Table Criteria: • Treatment may cause partial regression (PR) or complete regression (CR) of the tumor in an animal. • In a PR response, the tumor volume is 50% or less of its Day 1 volume for three consecutive measurements during the course of the study, and equal to or greater than 13.5 mm3 for one or more of these three measurements. • In a CR response, the tumor volume is less than 13.5 mm3 for three consecutive measurements during the study. • Any animal with a CR response at the end of the study was additionally classified as a tumor-free survivor (TFS). • Animals were scored only once during the study for a PR or CR event and only as CR if both PR and CR criteria were satisfied. […]

Nc1ccn([C@@H]2O[C@H](CO)[C@@H](O)C2(F)F)c(=O)n1 [Gemcitabine]
0: CR (complete regression) | PR (partial regression) | TFS (tumor-free survivor) (end of study Day 56)
